As a reminder, the ED50 is the dose at which the effect has come halfway, by size or by number of responders.

The text below walks through data of patent US5952501A, “Certain tricyclic substituted diazabicylo[3.2.1] octane derivatives” (priority 1995, dated 1999).

Data set [1] concerns stereotypy:hyperactivity. The data set can be described thus: stereotypy:hyperactivity ED50 ratio (typical versus atypical neuroleptic profile). Particulars: for neuroleptic profile: in words, stereotypy versus hyperactivity models; for Ratio: stereotypy:hyperactivity ED50 ratio, greater than ten considered clozapine like atypical. It is filed as in vivo, male Sprague-Dawley rats. An excerpt:
The ratios of the ED50 's determined in the assay systems described above are predictive of typical versus atypical profiles for potential neuroleptic candidates.
A compound encompassed within the disclosure of French patent application No. 71.27825 was synthesized and evaluated using the assays described above. This prior art compound is designated Compound A for purposes of comparison and has the formula: [drawing 12]

The conditions of data set [2]: cited from earlier work.
The subject of data set [3] is apomorphine-induced stereotypy. The data set can be described thus: Antagonism of Apomorphine-Induced Stereotypy. As to conditions: Rattus norvegicus, sc, 1 h, read-out: ED50 Stereotypy.
Data set [4] deals with amphetamine-induced hyperactivity. Particulars: Rattus norvegicus, sc, 1 h, read-out: ED50 Hyperactivity.

Where two headings read alike, the source gives them in different places. A value given as a limit tells only on which side of the number the result lay.

`CN1CCN(C2=Nc3cc(Cl)ccc3Nc3ccccc32)CC1` [Clozapine]: in data set [1], the neuroleptic profile result was “clozapine-like atypical antipsychotic profiles” and the Ratio stood at 18. In addition, in data set [2] (in words, than classical neuroleptics, background), the “incidence of extrapyramidal side effects” value was “lesser incidence of extrapyramidal side effects than classical neuroleptics”. For the same compound, the ED50 in data set [3] stood at 26.9 mg/kg. For the same compound, the ED50 in data set [4] turned out to be 1.49 mg/kg.
Take `O=C(CCCN1CCC(O)(c2ccc(Cl)cc2)CC1)c1ccc(F)cc1` [Haloperidol]: the Ratio in data set [1] came out at 0.94. Also, the median effective dose (ED50) is 0.036 mg/kg in data set [3] and 0.038 mg/kg in data set [4].
Taken in the same sequence, the figures for `Cc1ccc2c(c1)CC(N1CC3CCC(C1)N3C)c1ccccc1O2.O=C(O)/C=C\C(=O)O` (stereo not shown) [Compound 2, 3-(2-Methyl-10,11-dihydro-dibenzo[b,f]oxepin-10-yl)-8-methyl-3,8-diazabicyclo(3.2.1)octane monomaleate] were 31, 12.7 mg/kg and 0.41 mg/kg.
The corresponding values for `CN1C2CCC1CN(C1Cc3cc(Cl)ccc3Oc3ccccc31)C2.O=C(O)/C=C\C(=O)O` (stereo not shown) [Compound 1, 3-(2-Chloro-10,11-dihydro-dibenzo[b,f]oxepin-10-yl)-8-methyl-3,8-diazabicyclo(3.2.1)octane monomaleate] are more than 48, more than 40 mg/kg and 0.84 mg/kg.
Consider `CN1CCN([C@@H]2Cc3ccccc3Sc3ccc(Cl)cc32)CC1` [R-Octoclothepin], for which, in data set [1], the Ratio amounted to 4.4. Also, the results for the ED50 in data set [3] and in data set [4] were 0.18 mg/kg and 0.8 mg/kg, respectively.
The corresponding values for `CN1C2CCC1CN(C1Cc3cc(Br)ccc3Oc3ccccc31)C2.O=C(O)/C=C\C(=O)O` (stereo not shown) [Compound 3, 3-(2-Bromo-10,11-dihydro-dibenzo[b,f]oxepin-10-yl)-8-methyl-3,8-diazabicyclo(3.2.1)octane monomaleate] are more than 10, more than 22 mg/kg and 2.15 mg/kg.
Take `CN1C2CCC1CN(C1Cc3ccccc3Oc3ccc(Cl)cc31)C2` (stereo not shown) [Prior Art Cpd A]: in data set [1], the neuroleptic profile entry is “typical neuroleptic profile which is comparable to conventional neuroleptic agents” and the Ratio is 3.1. Further, in data set [3], the ED50 was 0.69 mg/kg. In addition, in data set [4], the ED50 worked out at 0.22 mg/kg.
Take `CCN1CCCC1CNC(=O)c1cc(S(N)(=O)=O)ccc1OC` (stereo not shown) [sulpiride]: the “incidence of extrapyramidal side effects” value in data set [2] (in vivo) was “lesser incidence of extrapyramidal side effects than classical neuroleptics”.
Regarding `CCN1CCC[C@H]1CNC(=O)c1c(O)c(Cl)cc(Cl)c1OC` [Raclopride], the Ratio in data set [1] amounted to 0.92. The ED50 in data set [3] is 0.044 mg/kg; in data set [4], 0.048 mg/kg.
